Source: patent US20030083271A1, “Topoisomerase I selective cytotoxic sugar derivatives of indolopyrrolocarbazoles” (priority 2001, published 2003)

Experiments:
HT-29 colon carcinoma = assay: In vivo antitumor activity, HT-29 xenograft; parameters: species or system Balb/c athymic (nude) female mice
Method: Compounds: Examples of this invention were administered in an appropriate vehicle such as cremophor/ethanol/water (10%/10%/80%), in normal saline, water/carboxymethylcellulose vehicle.
All compounds were tested at several dose levels, with attempts each time to achieve their maximum tolerated dose (MTD). […] The optimal dose (OD) was the dose producing the best therapeutic effect, and was usually, but not always, synonymous with the MTD.
Tumors: Human tumors (HCT-116 and HT-29 colon carcinomas) were grown as xenografts in Balb/c athymic (nude) female mice. Antitumor assays. All tumors were implanted subcutaneously (sc) as 3-4mm fragments using a 13 gauge trochar. There were generally eight mice per treatment and control group. When treatment was delayed until tumors had obtained a certain size (weight), referred to as a staged tumor experiment (expt.), tumor-bearing mice were selected so that their tumors fell within a limited range of sizes for the particular expt.
Tumors were measured by calipers, and tumor weight calculated by the formula length (mm) times (×) width (mm)^2/2=tumor weight (mg). The median time (in days) to reach a predetermined tumor target size (for example, 500 mg) for untreated, control (C) mice relative to the time to reach the same target size for treated (T) mice, was calculated as a T-C value. T-C values were divided by the tumor volume doubling time (TVDT), and multiplied by 3.32, to yield a gross log cell kill (LCK) value, [i.e., (T-C)/TVDT×3.32=LCK].
A mouse was considered cured if there was no palpable tumor after a period of time equal to 10×TVDT post-reatment (Rx).

P388/CPT45 cells [1] = assay: Cytotoxicity in camptothecin-resistant P388/CPT45 cells relative to parental P388 (selectivity index R/S); assay type: cell-based, murine; conditions: IC50 P388/CPT45 cells divided by IC50 parental P388 cells
Excerpt: The present invention includes fluoro sugar and other sugar derivatives of indolopyrrolocarbazoles of formula (I), as defined above. […] Most importantly, the instant invention describes topo I active compounds, related to compounds disclosed in WO 98/07433 and co-pending U.S. application, Ser. No. 08/914566 (both herein incorporated by reference), which display a surprising and unexpected selectivity index when evaluated for cytotoxicity in certain cell lines which express normal levels of topo I required for cell proliferation, compared with cell lines that are deficient in or underexpress topo I. Said “selectivity index” (R/S) was generated by dividing the cytotoxic IC50 of a particular compound against a camptothecin-resistant murine leukemia cell line, P388/CPT45, by the IC50 generated when using the parent P388 cell line. […] A level of selectivity was judged to be advantageous and beneficial in, for example, modulating potential undesirable side effects and/or toxicity. The compounds of the present invention were selected from compounds generically disclosed in WO 98/07433 and co-pending U.S. patent application, Ser. No. 08/914566, on the basis of an unexpected and unpredictable selectivity index (see Table I and II). […] Simple changes in the substitution of the sugar portion or the indolopyrrolocarbazole portion of the present invention will change the selectivity. This change in selectivity is not predictable by one skilled in the art.
(§1) Similarly, P338 murine leukemia cells were maintained in RPMI 1640 supplemented with 20% fetal bovine serum and 10 μM 2-mercaptoethanol. A camptothecin resistant subline, P388/CPT45, was selected for resistance to camptothecin and is over 1000-fold resistant to this compound (Woessner, et al. Oncol. Res. 1992, 4, 481-488).
(§2) In vitro cytotoxicity was assessed in tissue culture cells by MTS (3-(4,5-dimethylthiazol-2-yl)-5-(3-carboxymethoxyphenyl)-2-(4-sulphenyl)-2H-tetrazolium, inner salt) assay (Riss and Moravec, Mol. Biol. Cell 1992, 3 (Suppl.), 184a). Cells were plated at 8,000 cell/well in 96 well microtiter plates and 24 hours later serial dilutions of the test compounds were made and added to the cells. The cells were incubated at 37° C. for 72 hours, at which time the tetrazolium dye, MTS at 333 μg/ml (final concentration), in combination with the electron coupling agent phenazine methosulfate at 25 μM (final concentration) was added. A dehydrogenase enzyme in live cells reduces the MTS to a form that absorbs light at 492 nm which can be quantitated spectrophotometrically. The greater the absorbance the greater the number of live cells. The results are expressed as an IC50, which is the drug concentration required to inhibit cell proliferation (i.e., absorbance at 492 nm) to 50% of that of untreated control cells.
The selectivity index (R/S) is defined as the ratio obtained by dividing the IC50 value obtained using P388/CPT45 cells by that obtained using parental P388 cells. The R/S ratios used to determine the relative topo I selectivity of selected compounds of this invention are shown below in Table I.

[2] = target: T1, purified human topoisomerase I (Homo sapiens, UniProt P11387); assay: Topoisomerase I-mediated single strand DNA break induction (in vitro); assay type: biochemical; conditions: median effect concentration for inducing single-strand breaks in the DNA substrate; read-out: Topo I EC50
T1 construct: purchased Topogen
T1 sequence (P11387 1-765): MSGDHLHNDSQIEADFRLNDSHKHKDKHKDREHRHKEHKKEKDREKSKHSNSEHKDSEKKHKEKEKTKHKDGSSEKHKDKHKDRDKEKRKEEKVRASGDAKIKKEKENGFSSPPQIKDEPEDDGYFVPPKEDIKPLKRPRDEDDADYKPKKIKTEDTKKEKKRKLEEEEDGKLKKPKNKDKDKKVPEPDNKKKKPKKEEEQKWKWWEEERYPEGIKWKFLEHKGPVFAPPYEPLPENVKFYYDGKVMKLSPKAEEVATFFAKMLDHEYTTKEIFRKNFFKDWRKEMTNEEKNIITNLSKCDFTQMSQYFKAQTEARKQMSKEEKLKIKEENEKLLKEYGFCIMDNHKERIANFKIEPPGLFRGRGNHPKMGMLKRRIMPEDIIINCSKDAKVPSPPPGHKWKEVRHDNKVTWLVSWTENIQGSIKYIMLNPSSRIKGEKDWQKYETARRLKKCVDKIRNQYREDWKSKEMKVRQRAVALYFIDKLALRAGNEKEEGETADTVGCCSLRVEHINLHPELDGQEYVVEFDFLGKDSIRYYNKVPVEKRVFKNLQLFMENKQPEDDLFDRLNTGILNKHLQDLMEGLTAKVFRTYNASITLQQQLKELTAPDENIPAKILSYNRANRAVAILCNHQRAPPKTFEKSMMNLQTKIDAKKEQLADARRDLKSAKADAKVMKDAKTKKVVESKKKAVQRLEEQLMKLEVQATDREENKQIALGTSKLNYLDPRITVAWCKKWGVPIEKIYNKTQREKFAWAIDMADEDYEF
Method: Topoisomerase I activity was measured as described below. The procedure for assaying compound-induced, topoisomerase I-mediated single strand breaks in DNA was essentially that described by Hsiang, et al., (J. Biol. Chem. 1985, 260, 14873-14878). Samples dissolved in 100% DMSO as either […] or 10 mg/ml solutions, unless otherwise stated, were diluted in Tris-EDTA buffer. Marine bacteriophage PM2 DNA (Boehringer Mannheim) was also diluted in Tris-EDTA buffer to a concentration of 0.02 μg/μl. Different dilutions of the compound being evaluated were mixed with diluted DNA and this mixture was added to […] (one unit of enzyme activity is defined as the amount capable of relaxing 100 ng of supercoiled DNA in approximately 30 minutes at 37° C.) aliquots of purified human topoisomerase I (Topogen) in 2X reaction buffer to start the reaction. The compound-DNA-enzyme mixture was incubated for 30 minutes at 37° C. before stopping the reaction with warm stop buffer containing sodium dodecyl sulfate and proteinase K (Sigma). These mixtures were allowed to incubate at 37° C. for another 10 minutes, at which time the mixtures were removed from the waterbath and extracted with a 24:1 mixture of chloroform/isoamyl alcohol. Following centrifugation, aliquots of the aqueous phases were placed in wells of a 0.9% agarose (SeaKem) gel in Tris-borate buffer containing 0.5 μg/ml of ethidium bromide and subjected to electrophoresis for 15 hours to separate the different topological isomers and nicked and broken DNAs. After destaining the gel in water, the ethidium bromide stained DNA reaction products were visualized by exposing the gel to UV irradiation. Negatives of the photographs of the irradiated gels were scanned with a densitometer and areas under the peaks were calculated in order to obtain percent single strand DNA break formation for each sample. A median effective concentration (EC50) was obtained for each compound by interpolation between points of the resulting dose-effect curve which defines the potency of the compound for its effect in inducing topoisomerase I-mediated single strand breaks in DNA. The topoisomerase I activities for certain compounds of the present invention are shown below in Table I.

P388/CPT45 cells [3] = conditions: P388/CPT45 versus parental P388; cited from earlier work
[4] = system: P388 murine leukemia cells; assay: In vitro cell-based cytotoxicity, parental P388 cells; conditions: Mus musculus, 72 h, median cytotoxic concentration, 3 days continuous exposure
Method: The proliferation inhibition activity against the murine P388 cell line was measured as follows. Evaluation of a soluble tetrazolium/formazan assay for cell growth and drug sensitivity in culture, using human and other tumor cell lines, was done according to the procedure described in Cancer Res. 1988, 48, 4827-4833. Cells were plated at 4000 cells/well in 96 well microtiter plates and 24 h later drugs were added and serially diluted. The cells were incubated at 37° C. for 72 h, at which time a tetrazolium dye, XTT, containing phenazine methosulfate was added. A dehydrogenase enzyme in live cells reduced the XTT to a form that absorbs light at 450 nm, which could be quantitated spectrophotometrically. The greater the absorbance the greater the number of live cells. The results are expressed as an IC50, which is the drug concentration required to inhibit cell proliferation (i.e., absorbance at 450 nm) to 50% of that of untreated control cells.
as §1, §2
The cytotoxic activity for certain compounds of the present invention, in both parental P388 and the camptothecin-resistant P388/CPT45 cell lines are shown below in Table I.

EC50 [2] [nM] | SMILES | LCK (gross log cell kill) (HT-29 colon carcinoma; HT29 sc xenograft in nude mice, at optimal or maximum tolerated dose, CPT-11 run as comparator in same experiment) | MTD (optimal or maximum tolerated dose level tested) (HT-29 colon carcinoma; HT29 xenograft experiment, nude mice) [mpkpi] | Selectivity Index R/S (P388/CPT45 cells [1]) | fold resistance of P388/CPT45 subline (P388/CPT45 cells [3]) | IC50 [4] [nM]
– | CC[C@@]1(O)C(=O)OCc2c1cc1n(c2=O)Cc2cc3ccccc3nc2-1 [camptothecin] | – | – | – | over 1000 fold | –
180 | NC[C@H]1O[C@@H](n2c3ccc(F)cc3c3c4c(c5c6ccccc6sc5c32)C(=O)NC4=O)[C@H](O)[C@@H](O)[C@@H]1O [Example 36] | – | – | <1.1 | – | 8990
70 | O=C1NC(=O)c2c1c1c3cc(F)c(F)cc3[nH]c1c1c2c2cc(F)c(F)cc2n1[C@@H]1O[C@H](CO)C[C@H](O)[C@H]1O [Example 21] | – | – | 207.7 | – | 5
20 | NC[C@H]1O[C@@H](n2c3cc(F)c(F)cc3c3c4c(c5c6cc(F)c(F)cc6sc5c32)C(=O)NC4=O)[C@H](O)[C@@H](O)[C@@H]1F [Example 12, 12-[6-Amino-4,6-dideoxy-4-fluoro-β-D-glucopyranosyl]-2,3,9,10-tetrafluoro-5H,13H-benzo[b]thienyl[2,3-a]pyrrolo[3,4-c]carbazole-5,7(6H)-dione] | – | – | 131.5 | – | 2

SMILES | EC50 [2] [nM] | LCK (gross log cell kill) (HT-29 colon carcinoma; HT29 sc xenograft in nude mice, at optimal or maximum tolerated dose, CPT-11 run as comparator in same experiment) | MTD (optimal or maximum tolerated dose level tested) (HT-29 colon carcinoma; HT29 xenograft experiment, nude mice) [mpkpi] | Selectivity Index R/S (P388/CPT45 cells [1]) | fold resistance of P388/CPT45 subline (P388/CPT45 cells [3]) | IC50 [4] [nM]
O=C1NC(=O)c2c1c1c3cc(F)c(F)cc3sc1c1c2c2cc(F)c(F)cc2n1[C@@H]1O[C@H](CO)C(F)(F)[C@H](O)[C@H]1O [Example 30, 12-[4,4-Difluoro-4-deoxy-β-D-glucopyranosyl]-2,3,9,10-tetrafluoro-5H, 13H-benzo[b]thienyl[2,3-a]pyrrolo[3,4c]carbazole-5,7(6H)-dione] | 10 | >1.4 | 16 | 575.5 | – | –
